{
  "source": "patent US20230212191A1",
  "about": "“SPIRO-SULFONIMIDAMIDE DERIVATIVES AS INHIBITORS OF MYELOID CELL LEUKEMIA-1 (MCL-1) PROTEIN” (PRELUDE THERAPEUTICS, INCORPORATED, priority 2020, published 2023)",
  "key": {"[1]": {"target": "T1, MCL-1 (Homo sapiens, UniProt Q07820)", "T1 construct": "purchased BPS Bioscience", "assay": "Cell free Mcl-1:Bim affinity assay (fluorescence polarization competition)", "format": "binding", "conditions": "15 nM MCL-1, 5 nM FITC-Bim tracer, 1 hour at room temperature; Ki calc. from IC50 by Nikolovska-Coleska's equation; read-out: BIM_ Ki", "method": "Cell Free Mcl-1:Bim Affinity Assay (Mcl-1 Bim)\nThe binding affinity of each compound was measured via a fluorescence polarization competition assay, in which the compound competes for the same binding site with the ligand, and thus leads to a dose-dependent anisotropy reduction. The tracer ligand utilized was a fluorescein isothiocyanate labelled peptide (FITC-[…]) derived from Bim (GenScript).\nThe assay was carried out in black half-area 96-well NBS plate (Corning), containing 15 nM of MCL-1 (BPS Bioscience), 5 nM of FITC-Bim and 3-fold serial diluted test compounds in a total volume of 50 μL of assay buffer (20 mM HEPES, 50 mM NaCl, 0.002% Tween 20, 1 mM TCEP, and 1% DMSO). The reaction plate was incubated for 1 hour at room temperature. The change of anisotropy is measured with an Envision multimode plate reader (PerkinElmer) at emission wavelength 535 nm. Fluorescence polarization was calc. in mP unit and the percentage inhibition was calc. by % inhibition=100×(mPDMSO−mP)/(mPDMSO−mPPC), in which mPDMSO is the DMSO control, and mPPC is the positive control. IC50 values were determined from a 10-point dose response curve by fitting the percent inhibition against compound concentration using the GraphPad Prism software. The inhibition constant Ki was subsequently calc. according to the Nikolovska-Coleska's equation (Anal. Biochem., 2004, 332, 261),\nwhere [I]50 is the concentration of the free inhibitor at 50% inhibition, [L]50 is the concentration of the free labeled ligand at 50% inhibition, [P]0 is the concentration of the free protein at 0% inhibition, and Kd is the dissociation constant of the protein-ligand complex."}, "[2]": {"tested_on": "H929 cells", "assay": "Cell viability assay (H929 10 FBS)", "format": "cell-based", "conditions": "CellTiter-Glo or ATPlite, read-out: H929_10FBS IC50", "method": "Cell Viability Assay (H929 10 FBS)\nDispense 10 μL aliquot of prepared H929 cells (1:1 ratio of cells:Trypan Blue (#1450013, Bio-Rad)) onto cell counting slide (#145-0011, Bio-Rad) and obtain cell density and cell viability using cell counter (TC20, Bio-Rad). Remove appropriate volume of resuspended cells from culture flask to accommodate 4000 cells/well @ 10 μL/well. Transfer H929 cells to 50 mL conical (#430290, Corning). Spin down at 1000 rpm for 5 min using tabletop centrifuge (SPINCHRON 15, Beckman). Discard supernatant and resuspend cell pellet in modified RPMI 1640 (#10-040-CV, Corning) cell culture media containing 10% FBS (F2422-500 ML, Sigma), sodium pyruvate (100 mM) (#25-000-CL, Corning), HEPES buffer (1 M) (#25-060-CL, Corning) and glucose (200 g/L) (A24940-01, Gibco) to a cell density of 400,000 cells/mL. Dispense 10 μL of resuspended H929 cells per well in 384-well small volume TC treated plate (#784080, Greiner Bio-one) using standard cassette (#50950372, Thermo Scientific) on Multi-drop Combi (#5840310, Thermo Scientific) in laminar flow cabinet. Dispense compounds onto plates using digital liquid dispenser (D300E, Tecan). Incubate plates in humidified tissue culture incubator @ 37° C. for 24 hours. Add 10 μL of prepared CellTiTer-Glo® detection buffer (G7570, Promega) or ATPlite 1Step detection reagent (#6016731, Perkin Elmer) to each well of 384-well plate using small tube cassette (#24073295, Thermo Scientific) on Combi multi drop, incubate @ RT for 30-60 min. Read plates with microplate reader (PheraStar, BMG Labtech) using 384 well luminescence mode."}},
  "note": "Read-outs that look alike come from different tables or passages of the source.",
  "data": [
    {"smiles": "CCNC(=O)NS1(=O)=NC(=O)C(C)(C)OC/C=C/[C@H](OC)[C@@H]2CC[C@H]2CN2C[C@@]3(CCCc4cc(Cl)ccc43)COc3ccc1cc32", "note": "(stereo partly drawn) [Example 20, 1-[(3R,6R,7S,8E,22S)-7′-Chloro-7-methoxy-12,12-dimethyl-13,15-dioxospiro[11,20-dioxa-15-thia-1,14-diazatetracyclo[14.7.2.03,6.019,24]pentacosa-8,14,16,18,24-pentaene-22,4′-2,3-dihydro-1H-naphthalene]-15-yl]-3-ethylurea]", "values": [
      {"measurement": "Ki", "setting": "[1]", "value": "< 1", "unit": "nM"},
      {"measurement": "IC50", "setting": "[2]; Homo sapiens, NCI-H929, 24 h", "value": "< 100", "unit": "nM"}
    ]},
    {"smiles": "COC1CN(C(=O)NS2(=O)=NC(=O)C(C)(C)OCC=CC(OC)C3CCC3CN3CC4(CCCc5cc(Cl)ccc54)COc4ccc2cc43)C1", "note": "(stereo not shown) [32 or 31]", "values": [
      {"measurement": "Ki", "setting": "[1]", "value": "< 1", "unit": "nM"},
      {"measurement": "IC50", "setting": "[2]; 24 hours", "value": "100 to 500", "unit": "nM"}
    ]},
    {"smiles": "CO[C@H]1/C=C/COC(C)(C)C(=O)N=S(=O)(NC(=O)c2ccccc2)c2ccc3c(c2)N(C[C@@H]2CC[C@H]21)C[C@@]1(CCCc2cc(Cl)ccc21)CO3", "note": "(stereo partly drawn) [Example 12, N-[(3R,6R,7S,8E,22S)-7′-Chloro-7-methoxy-12,12-dimethyl-13,15-dioxospiro[11,20-dioxa-15-thia-1,14-diazatetracyclo[14.7.2.03,6.019,24]pentacosa-8,14,16,18,24-pentaene-22,4′-2,3-dihydro-1H-naphthalene]-15-yl]benzamide]", "values": [
      {"measurement": "Ki", "setting": "[1]", "value": "< 1", "unit": "nM"},
      {"measurement": "IC50", "setting": "[2]; Homo sapiens, NCI-H929, 24 h", "value": "100 to 500", "unit": "nM"}
    ]},
    {"smiles": "CO[C@H]1/C=C/COC(C)(C)C(=O)N=S(=O)(NC(=O)N2CC(N(C)C)C2)c2ccc3c(c2)N(C[C@@H]2CC[C@H]21)C[C@@]1(CCCc2cc(Cl)ccc21)CO3", "note": "(stereo partly drawn) [Example 33, N-[(3R,6R,7S,8E,22S)-7′-Chloro-7-methoxy-12,12-dimethyl-13,15-dioxospiro[11,20-dioxa-15-thia-1,14-diazatetracyclo[14.7.2.03,6.019,24]pentacosa-8,14,16,18,24-pentaene-22,4′-2,3-dihydro-1H-naphthalene]-15-yl]-3-(dimethylamino)azetidine-1-carboxamide]", "values": [
      {"measurement": "Ki", "setting": "[1]", "value": "< 1", "unit": "nM"},
      {"measurement": "IC50", "setting": "[2]; Homo sapiens, NCI-H929, 24 h", "value": "< 100", "unit": "nM"}
    ]},
    {"smiles": "COC1C=CCOC(C)(C)C(=O)N=S(=O)(NC(=O)N2CC(O)C2)c2ccc3c(c2)N(CC2CCC21)CC1(CCCc2cc(Cl)ccc21)CO3", "note": "(stereo not shown) [29 or 30]", "values": [
      {"measurement": "Ki", "setting": "[1]", "value": "< 1", "unit": "nM"},
      {"measurement": "IC50", "setting": "[2]; 24 hours", "value": "< 100", "unit": "nM"}
    ]}
  ]
}
